Patent US20240269298A1, “PHOSPHONYL DERIVATIVE, AND COMPOSITION AND PHARMACEUTICAL APPLICATION THEREOF” (XIZANG HAISCO PHARMACEUTICAL CO., LTD., priority 2021, published 2024)
Where two headings read alike, the source gives them in different places.

Tests used:
[1] = test system: NCI-H1975 (EGFR-L858R-T790M) cells; assay: Inhibitory activity on proliferation of NCI-H1975 (EGFR-L858R-T790M) cells (CTG, 72 h); type: cell-based; conditions: Homo sapiens
How it was run: (§1)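 IC50 values come from S-shaped dose-survival fits of CTG signal expressed as % of vehicle. Compound exposure lasted 72 h at 37 °C with 0.1% DMSO; seeding was 3000 A431 cells/well in DMEM+10% FBS and 1000 NCI-H1975 cells/well in RPMI1640+10% FBS.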

[2] = test system: NCI-H1975 EGFR-L858R-T790M-C797S cells; assay: Inhibitory activity on proliferation of NCI-H1975 EGFR-L858R-T790M-C797S cells (CellTiter-Glo, 72 h); type: cell-based; conditions: Homo sapiens
Protocol: NCI-H1975 EGFR-L858R-T790M-C797S cells were cultured in an incubator at 37° C. with 5% CO2, and the culture medium was RPMI1640+10% FBS+100 μg/mL hygromycin. The cells in the logarithmic phase were collected, and the cell suspension was adjusted to an appropriate concentration with a hygromycin-free culture medium, and then plated on a 96-well plate at a density of 1500 cells/well and a volume of 90 μL. 10 μL of the compounds at different concentrations were added, and a vehicle control group (cells plus DMSO) was provided, wherein the concentration of DMSO was 0.1%. The cell culture plate was cultured in an incubator at 37° C. with 5% CO2 for 72 hours. After the incubation was completed, according to operation instructions for a CellTiter-Glo kit (Promega, G7572), 50 μL of CTG solution, which was already pre-melted and equilibrated to room temperature, was added to each well, and the mixtures were uniformly mixed for 2 min using a microplate shaker. The plate was placed at room temperature for 10 min, and then […] signal values were measured using a microplate reader (Envision 2104). […] was processed based on formula (2), and using the GraphPad Prism 5.0 software and nonlinear regression model, S-shaped dose-survival curves were plotted, and IC50 values were calculated. wherein Vsample was the readout of the drug-treated group, and Vvehicle control was the readout of the control group.

A431 (EGFR-WT) cells = assay: Inhibitory activity on proliferation of A431 (EGFR-WT) cells (CTG, 72 h); type: cell-based; conditions: Homo sapiens, A-431
How it was run: as §1

[3] = Pharmacokinetic test in mice; type: in vivo; conditions: male, ICR, mouse, po, administration i.g. (10 mg/kg), plasma
Protocol: Test objective: In this experiment, a single dose of test compounds was administered to ICR mice intravenously and intragastrically, the concentrations of the test compounds in plasma of mice were measured, and the pharmacokinetic characteristics and bioavailability of the test compounds in mice were evaluated.
Experimental animals: male ICR mice, 20-25 g, purchased from BEIJING HFK BIOSCIENCE CO., LTD. with the laboratory animal production license number of SCXK (JING) 2019-0008; or purchased from CHENGDU DDOSSY EXPERIMENTAL ANIMALS CO., LTD. (SCXK (CHUAN) 2020-030); or purchased from HUNAN SJA LABORATORY ANIMAL CO., LTD. (SCXK (XIANG) 2019-0004).
Experimental method: on the day of the experiment, ICR mice were randomly grouped according to their body weights. The mice were fasted with water available for 12 to 14 hours one day before the administration, and were fed 4 hours after the administration.
Sampling: before and after the administration, blood was taken from the orbits of the mice under isoflurane anesthesia, and placed in an EDTAK2 centrifuge tube. Centrifugation was carried out at 5000 rpm at 4° C. for 10 min, and the plasma was collected.
Time points for plasma collection in G1&G2 groups: 0, 5 min, 15 min, 30 min, 1h, 2h, 4h, 6h, 8h, and 24 h; • time points for plasma collection in G3 group: 0, 5 min, 15 min, 30 min, 1 h, 2 h, 4 h, 6h, 8h, and 24 h; • before analysis and detection, all samples were stored at −80° C. The samples were analyzed quantitatively by LC-MS/MS.

[4] = read-out: IC50 (value in brackets)

COc1cc(N2CCC3(CCN(CC4CCN(c5ccc6c(c5)C(=O)N(C5CCC(=O)NC5=O)C6=O)CC4)CC3)CC2)c(-c2cnn(C)c2)cc1Nc1ncc(Cl)c(Nc2ccc3nccnc3c2P(C)(C)=O)n1 (stereo not shown) [Compound 9, 5-(4-((9-(4-((5-chloro-4-((5-(dimethylphosphoryl)quinoxalin-6-yl)amino)pyrimidin-2-yl)amino)-5-methoxy-2-(1-methyl-1H-pyrazol-4-yl)phenyl)-3,9-diazaspiro[5.5]undecan-3-yl)methyl)piperidin-1-yl)-2-(2,6-dioxopiperidin-3-yl)isoindoline-1,3-dione]
IC50 ([1]; read-out: IC50 (class symbol)): < 0.1 µM | IC50 [1, 4]: 0.014 µM | IC50 ([2]; read-out: IC50 (class symbol)): < 0.2 µM | IC50 ([2]; read-out: IC50 (value)): 0.039 µM

COc1cc(N2CCC(N3CCN(CC4CCN(c5ccc6c(c5)C(=O)N(C5CCC(=O)NC5=O)C6=O)C4)CC3)CC2)c(-c2cnn(C)c2)cc1Nc1ncc(Cl)c(Nc2ccc3nccnc3c2P(C)(C)=O)n1 (stereo not shown) [Compound 6, 5-(3-((4-(1-(4-((5-chloro-4-((5-(dimethylphosphoryl)quinoxalin-6-yl)amino)pyrimidin-2-yl)amino)-5-methoxy-2-(1-methyl-1H-pyrazol-4-yl)phenyl)piperidin-4-yl)piperazin-1-yl)methyl)pyrrolidin-1-yl)-2-(2,6-dioxopiperidin-3-yl)isoindoline-1,3-dione]
IC50 ([1]; read-out: IC50 (class symbol)): < 0.1 µM | IC50 [1, 4]: 0.015 µM | IC50 (A431 (EGFR-WT) cells): ≥ 10 µM | IC50 ([2]; read-out: IC50 (class symbol)): < 0.2 µM | IC50 ([2]; read-out: IC50 (value)): 0.027 µM

COc1cc(N2CCC(N3CCN(CCOCC#Cc4cccc5c4CN(C4CCC(=O)NC4=O)C5=O)CC3)CC2)ccc1Nc1ncc(Cl)c(Nc2ccccc2P(C)(C)=O)n1 (stereo not shown) [Control compound A, reference compound]
IC50 ([1]; read-out: IC50 (class symbol)): 0.1 to 0.5 µM | IC50 [1, 4]: 0.549 µM | IC50 ([2]; read-out: IC50 (value)): 1.38 µM | AUC [3]: 563 ng·h/mL | half-life [3]: 1.54 h

COc1cc(N2CCC(N3CCN(C(=O)CNc4cccc5c4C(=O)N(C4CCC(=O)NC4=O)C5=O)CC3)CC2)ccc1Nc1ncc(Cl)c(Nc2ccccc2P(C)(C)=O)n1 (stereo not shown) [Control compound B, reference compound]
IC50 ([1]; read-out: IC50 (class symbol)): 0.1 to 0.5 µM | IC50 [1, 4]: 0.658 µM | IC50 ([2]; read-out: IC50 (class symbol)): 0.5 to 1 µM | IC50 ([2]; read-out: IC50 (value)): 0.704 µM | AUC [3]: 2090 ng·h/mL | half-life [3]: 1.23 h

COc1cc(N2CCC(CN3CCC4(CC3)CCN(c3cc5c(cc3F)C(=O)N(C3CCC(=O)NC3=O)C5=O)CC4)CC2)c(-c2cnn(C)c2)cc1Nc1ncc(Br)c(Nc2ccc(-c3ccccc3)cc2P(C)(C)=O)n1 (stereo not shown) [Compound 47, 5-(9-((1-(4-((5-bromo-4-((3-(dimethylphosphoryl)-[1,1′-biphenyl]-4-yl)amino)pyrimidin-2-yl)amino)-5-methoxy-2-(1-methyl-1H-pyrazol-4-yl)phenyl)piperidin-4-yl)methyl)-3,9-diazaspiro[5.5]undecan-3-yl)-2-(2,6-dioxopiperidin-3-yl)-6-fluoroisoindoline-1,3-dione]
IC50 ([1]; read-out: IC50 (class symbol)): 0.1 to 0.5 µM | IC50 [1, 4]: 0.11 µM | IC50 (A431 (EGFR-WT) cells): ≥ 10 µM | IC50 ([2]; read-out: IC50 (class symbol)): < 0.2 µM | IC50 ([2]; read-out: IC50 (value)): 0.072 µM | AUC(0-t) [3]: 30600 ng·h/mL

COc1cc(N2CCC(N3CCN(CC4CCN(c5ccc6c(c5)C(=O)N(C5CCC(=O)NC5=O)C6=O)CC4)CC3)CC2)c(-c2cnn(C)c2)cc1Nc1ncc(Br)c(Nc2ccc3nccnc3c2P(C)(C)=O)n1 (stereo not shown) [Compound 18, 5-(4-((4-(1-(4-((5-bromo-4-((5-(dimethylphosphoryl)quinoxalin-6-yl)amino)pyrimidin-2-yl)amino)-5-methoxy-2-(1-methyl-1H-pyrazol-4-yl)phenyl)piperidin-4-yl)piperazin-1-yl)methyl)piperidin-1-yl)-2-(2,6-dioxopiperidin-3-yl)isoindoline-1,3-dione]
IC50 ([1]; read-out: IC50 (class symbol)): < 0.1 µM | IC50 [1, 4]: 0.012 µM | IC50 (A431 (EGFR-WT) cells): ≥ 10 µM | IC50 ([2]; read-out: IC50 (class symbol)): < 0.2 µM | IC50 ([2]; read-out: IC50 (value)): 0.024 µM

COc1cc(N2CCC(N3CCN(C4CC5(CCN(c6ccc7c(c6)C(=O)N(C6CCC(=O)NC6=O)C7=O)CC5)C4)CC3)CC2)c(-c2cnn(C)c2)cc1Nc1ncc(Cl)c(Nc2ccc3nccnc3c2P(C)(C)=O)n1 (stereo not shown) [Trifluoroacetate of compound 7, 5-(2-(4-(1-(4-((5-chloro-4-((5-(dimethylphosphoryl)quinoxalin-6-yl)amino)pyrimidin-2-yl)amino)-5-methoxy-2-(1-methyl-1H-pyrazol-4-yl)phenyl)piperidin-4-yl)piperazin-1-yl)-7-azaspiro[3.5]nonan-7-yl)-2-(2,6-dioxopiperidin-3-yl)isoindoline-1,3-dione]
IC50 ([1]; read-out: IC50 (class symbol)): < 0.1 µM | IC50 [1, 4]: 0.02 µM | IC50 (A431 (EGFR-WT) cells): ≥ 10 µM | IC50 ([2]; read-out: IC50 (class symbol)): < 0.2 µM | IC50 ([2]; read-out: IC50 (value)): 0.03 µM

COc1cc(N2CCC(CN3CCN(c4ccc5c(c4)C(=O)N(C4CCC(=O)NC4=O)C5=O)CC3)CC2)c(-c2cnn(C)c2)cc1Nc1ncc(Cl)c(Nc2ccc(-c3ccccc3)cc2P(C)(C)=O)n1 (stereo not shown) [Compound 65, 5-(4-((1-(4-((5-chloro-4-((3-(dimethylphosphoryl)-[1,1′-biphenyl]-4-yl)amino)pyrimidin-2-yl)amino)-5-methoxy-2-(1-methyl-1H-pyrazol-4-yl)phenyl)piperidin-4-yl)methyl)piperazin-1-yl)-2-(2,6-dioxopiperidin-3-yl)isoindoline-1,3-dione]
IC50 ([1]; read-out: IC50 (class symbol)): 0.1 to 0.5 µM | IC50 [1, 4]: 0.129 µM | IC50 (A431 (EGFR-WT) cells): ≥ 10 µM | IC50 ([2]; read-out: IC50 (class symbol)): < 0.2 µM | IC50 ([2]; read-out: IC50 (value)): 0.136 µM | AUC(0-t) [3]: 62300 ng·h/mL

COc1cc(N2CCC(CN3CCN(c4ccc5c(c4)C(=O)N(C4CCC(=O)NC4=O)C5=O)CC3)CC2)c(-c2cnn(C)c2)cc1Nc1ncc(Br)c(Nc2ccc(-c3ccccc3F)cc2P(C)(C)=O)n1 (stereo not shown) [Compound 101, 5-(4-((1-(4-((5-bromo-4-((3-(dimethylphosphoryl)-2′-fluoro-[1,1′-biphenyl]-4-yl)amino)pyrimidin-2-yl)amino)-5-methoxy-2-(1-methyl-1H-pyrazol-4-yl)phenyl)piperidin-4-yl)methyl)piperazin-1-yl)-2-(2,6-dioxopiperidin-3-yl)isoindoline-1,3-dione]
IC50 ([1]; read-out: IC50 (class symbol)): 0.1 to 0.5 µM | IC50 [1, 4]: 0.107 µM | IC50 (A431 (EGFR-WT) cells): ≥ 10 µM | IC50 ([2]; read-out: IC50 (class symbol)): < 0.2 µM | IC50 ([2]; read-out: IC50 (value)): 0.152 µM | AUC [3]: 118000 ng·h/mL | half-life [3]: 12.7 h

COc1cc(N2CCC(CN3CCN(c4ccc5c(c4)C(=O)N(C4CCC(=O)NC4=O)C5=O)CC3)CC2)c(-c2cnn(C)c2)cc1Nc1ncc(Br)c(Nc2ccc(-c3ccccc3)cc2P(C)(C)=O)n1 (stereo not shown) [Compound 45, 5-(4-((1-(4-((5-bromo-4-((3-(dimethylphosphoryl)-[1,1′-biphenyl]-4-yl)amino)pyrimidin-2-yl)amino)-5-methoxy-2-(1-methyl-1H-pyrazol-4-yl)phenyl)piperidin-4-yl)methyl)piperazin-1-yl)-2-(2,6-dioxopiperidin-3-yl)isoindoline-1,3-dione]
IC50 ([1]; read-out: IC50 (class symbol)): 0.1 to 0.5 µM | IC50 [1, 4]: 0.105 µM | IC50 (A431 (EGFR-WT) cells): ≥ 10 µM | IC50 ([2]; read-out: IC50 (class symbol)): 0.2 to 0.5 µM | IC50 ([2]; read-out: IC50 (value)): 0.364 µM | AUC(0-t) [3]: 59200 ng·h/mL
